Laboratory results reported in patent US9655846B2, “Methods for the preparation of liposomes comprising drugs” (priority 2009, dated 2017).

Experiments:
[1] = Stability upon dilution or storage, by reverse phase HPLC; type: physicochemical; conditions: for time docetaxel remained soluble and formulation stable upon dilution: RP-HPLC
Description: Docetaxel (5 mg) was added to 31 μL of oleic acid and mixed using a VORTEX®. Ethanolamine (6 μL) was subsequently added and mixed using a VORTEX®. After mixing, the sample was dispersed in 963 μL of water for injection. Docetaxel was soluble and the formulation clear at 5 mg/mL. Docetaxel remained soluble, and the formulation was stable, upon dilution (1:10 in 2.5% glycerol) up to 24 hours as analyzed by a reverse phase high performance liquid chromatography method.
(§1) Docetaxel (5.0 mg) was added to 1 mL of 0.05 M sodium oleate and mixed using a VORTEX®. Docetaxel was soluble and the formulation clear at 5.0 mg/mL. Docetaxel remained soluble, and the formulation was stable, upon dilution (1:10 in 2.5% glycerol) up to 24 hours as analyzed by a reverse phase high performance liquid chromatography method.
as §1, with “(2” for “(5.0”, “1” for “0.05”, “caprylate” for “oleate”, “by” for “using”, “2” for “5.0”, “(1:2” for “(1:10 in”
as §1, with “(7.0” for “(5.0”, “1” for “0.05”, “linoleate” for “oleate”, “7.0” for “5.0”, “(1:10” for “(1:10 in”
Docetaxel (5 mg) was added to 1 mL of pre-made liposome containing 2 mM sodium oleate and 6% soy phosphatidyl choline, 10% trehalose, pH adjusted to 5-7 using Acetic acid, mixed using a VORTEX®, and microfluidized using a Microfluidizer with 10 passes at 15,000 psi. Five additional passes with the Microfluidizer at 15,000 psi were made to incorporate all 5 mg of the drug into 1 mL of pre-made liposome. Docetaxel was soluble and the formulation was transparent at 5 mg/mL. Docetaxel remained soluble, and the formulation was stable, upon dilution (1:10 in D5W) up to 48 hours as analyzed by a reverse phase high performance liquid chromatography method.
Hydrophobic or lipophilic compounds can be solubilized directly in sodium (or any ion) salt of fatty acid dissolved in an organic solvent. The organic solvent is subsequently removed using rotary evaporation, spray drying, or any other pharmaceutically acceptable processes. The drug-sodium salt of fatty acid mixture is subsequently dispersed in water, isotonic glycerol, or any pharmaceutically acceptable isotonic solution to achieve a desired concentration of the solubilized compound. For example, docetaxel (5 mg/mL) was dissolved in 100 mM sodium oleate in 100% ethanol. Ethanol was completely evaporated using rotary evaporation at 20° C. The docetaxel-sodium oleate was reconstituted with Water For Injection (“WFI”) or 2.5% glycerol to provide 5 mg/mL, 10 mg/mL, or 20 mg/mL concentration of docetaxel.
50 μl of Docetaxel in ethanol (100 mg/mL) was added to 1 mL of pre-made liposome containing 2 mM sodium oleate and 6% soy phosphatidyl choline, 10% trehalose and pH adjusted to 5-7 using Acetic acid, mixed using a VORTEX® and microfluidized using a Microfluidizer with 10 passes at 15,000 psi. Docetaxel was soluble and the formulation is transparent at 5 mg/mL. Docetaxel remained soluble, and the formulation was stable, upon dilution (1:10 in D5W) up to 48 hours as analyzed by a reverse phase high performance liquid chromatography method. […] The lyophilized product is reconstituted with water for injection at 5 mg, 10, or 20 mg/ml, concentration, essentially free of organic solvent.

[2] = Incorporation of docetaxel into liposome; type: physicochemical; conditions: docetaxel added after liposome preparation vs conventional process
Description: As provided herein, the sequence of the addition of docetaxel results in enhanced solubility of the docetaxel. The conventional method of incorporating a hydrophobic drug into liposome is by adding the drug to lipid before liposome preparation. See, e.g., Immordino, M. L. et al., Journal of Controlled Release, 2003, 91: 417-429. By the conventional process, the incorporation of the drug is only 0.3 to 0.7 mg/mL. When docetaxel is added after liposome preparation, the incorporation of docetaxel is increased from 0.3 mg/mL to 5 mg/mL, which is more than 10 fold increase in solubility of the drug in lipid alone.
In the conventional liposome preparation, the drug to lipid molar percent ratio is 4-6% with the incorporation of drug into liposome efficiency is only 56%. See Immordino, M. L. et al., Journal of Controlled Release, 2003, 91: 417-429.

time docetaxel remained soluble and formulation stable upon dilution ([1]; Example 6 oleic acid formulation, dilution 1:10 in 2.5% glycerol): up to 24 hours | time docetaxel remained soluble and formulation stable upon dilution ([1]; Example 7 sodium oleate formulation, dilution 1:10 in 2.5% glycerol): up to 24 hours | time docetaxel remained soluble and formulation stable upon dilution ([1]; Example 8 sodium caprylate formulation, dilution 1:2 2.5% glycerol): up to 24 hours | time docetaxel remained soluble and formulation stable upon dilution ([1]; Example 9 sodium linoleate formulation, dilution 1:10 2.5% glycerol): up to 24 hours | time docetaxel remained soluble and formulation stable upon dilution ([1]; Example 10 oleate liposome formulation, dilution 1:10 in D5W): up to 48 hours | stability of the lyophilized formulation ([1]; Example 10 oleate liposome formulation): stable for more than a year | time docetaxel remained soluble and formulation stable upon dilution ([1]; Example 12 nanosome-oleate formulation, dilution 1:10 in D5W): up to 48 hours | stability of the lyophilized formulation ([1]; Example 12 nanosome-oleate formulation): stable for more than a year | increase in solubility of the drug over lipid alone [2]: more than 10 fold
Compound: CC(=O)O[C@@]12CO[C@@H]1C[C@H](O)[C@@]1(C)C(=O)[C@H](O)C3=C(C)[C@@H](OC(=O)[C@H](O)[C@@H](NC(=O)OC(C)(C)C)c4ccccc4)C[C@@](O)([C@@H](OC(=O)c4ccccc4)[C@H]21)C3(C)C [Docetaxel, docetaxel]
time reconstituted docetaxel remained in solution ([1]; Example 11: docetaxel-sodium oleate reconstituted with WFI or 2.5% glycerol to 5, 10 or 20 mg/mL): remained in solution for 2 hours, 4 hours, 6 hours, 8 hours or 24 hours
